Patent US7674586B2, “Methods of identifying modulators of L-glutamate-gated chloride channel proteins from Rhipicephalus sanguineus” (Merial Limited, priority 2000, dated 2010)

How the values were obtained:
RsGluCl1 (T12) = assay: Two-microelectrode voltage clamp of Xenopus oocytes injected with RsGluCl1 T12 RNA; format: cell-based, Rhipicephalus sanguineus; details: for channel activation / current in response (qualitative): RsGluCl1 expressed in Xenopus oocytes
Procedure: (§1) Xenopus laevis oocytes were prepared and injected using standard methods previously described [Arena, J. P., Liu, K. K., Paress, P. S. & Cully, D. P. Mol. Pharmacol. 40, 368-374 (1991); Arena, J. P., Liu, K. K., Paress, P. S., Schaeffer, J. M. & Cully, D. F., Mol. Brain. Res. 15, 339-348 (1992)]. Adult female Xenopus laevis were anesthetized with 0.17% tricaine methanesulfonate and the ovaries were surgically removed and placed in a solution consisting of (mM): NaCl 82.5, KCl 2, MgCl2 1, HEPES 5, NaPyruvate 2.5, Penicillin G. 100,000 units/L, Streptomycin Sulfate 1000 mg/L, pH 7.5 (Mod. OR-2). Ovarian lobes were broken open, rinsed several times in Mod. OR-2, and incubated in 0.2% collagenase (Sigma, Type1) in Mod. OR-2 at room temperature with gentle shaking. After 1 hour the collagenase solution was renewed and the oocytes were incubated for an additional 30-90 min until approximately 50% of the oocytes were released from the ovaries. Stage V and VI oocytes were selected and placed in media containing (mM): NaCl 96, KCl 2, MgCl2 1, CaCl2 1.8, HEPES 5, NaPyruvate 2.5, theophylline 0.5, gentamicin […], pH 7.5 (ND-96) for 16-24 hours before injection. Oocytes were injected with 50 nl of Dv8, Dv9, RsGluCl1 or RsGluCl2 RNA at a concentration of 0.2 mg/ml. Oocytes were incubated at 18° C. for 1-6 days in ND-96 before recording.
(§2) Recordings were made at room temperature in modified ND-96 consisting of (mM: NaCl 96, MgCl2 1, CaCl2 0.1, BaCl2 3.5, HEPES 5, pH 7.5. Oocytes were voltage clamped using a Dagan CA1 two microelectrode amplifier (Dagan Corporation, Minneapolis, Minn.) interfaced to a Macintosh 7100/80 computer. The current passing electrode was filled with 0.7 M KCl, 1.7 M KCitrate, and the voltage recording electrode was filled with 1 M KCl. Throughout the experiment oocytes were superfused with modified ND-96 (control solution) or with ND-96 containing potential channel activators and blockers at a rate of approximately 3 ml/min. Data were acquired at 100 Hz and filtered at 33.3 Hz using Pulse software from HEKA Elektronik (Lambrecht, Germany). All recordings were performed from a holding potential of either 0 or −30 mV.
cRNA was synthesized from the RsGluCl 1S clone T12 and expressed in Xenopus oocytes. The channel encoded by RsGluCl-1 is a glutamate-gated chloride channel activated by IVM-PO4.

RsGluCl2 = assay: Two-microelectrode voltage clamp of Xenopus oocytes injected with RsGluCl2 RNA; format: cell-based, Rhipicephalus sanguineus; details: for channel activation / current in response (qualitative): RsGluCl2 expressed in Xenopus oocytes as a single functional channel
Procedure: as §1
as §2, with “All recordings were performed from a holding potential of either 0 or −30 mV.” left out

Compound	concentration at which current activation was maximal (RsGluCl1 (T12); RsGluCl1 T12 RNA in Xenopus oocytes, FIG. 10) [µM]	channel activation / current in response (qualitative) (RsGluCl1 (T12))	channel activation / current in response (qualitative) (RsGluCl2)	current produced on application (RsGluCl1 (T12); 100 nM, compared with the glutamate-activated current, RsGluCl1 T12 in Xenopus oocytes)	concentration at which current activation was maximal (RsGluCl2; RsGluCl2 expressed in Xenopus oocytes, FIG. 11) [µM]
N[C@@H](CCC(=O)O)C(=O)O [glutamate]	10	exhibits a current	failed to activate a current	–	–
CC[C@H](C)[C@H]1O[C@]2(CC[C@@H]1C)C[C@@H]1C[C@@H](C/C=C(\C)[C@@H](O[C@H]3C[C@H](OC)[C@@H](O[C@H]4C[C@H](OC)[C@@H](O)[C@H](C)O4)[C@H](C)O3)[C@@H](C)/C=C/C=C3\CO[C@@H]4[C@H](O)C(C)=C[C@@H](C(=O)O1)[C@]34O)O2 [ivermectin, 22,23-dihydro-avermectin B1a]	–	–	–	produces a similar although non-inactivating current	~1
ivermectin phosphate	–	activated	exhibit a current	–	–
